Test results published in patent US20230087118A1, “IMIDAZO[1,2-a][sequence] DERIVATIVES AND THEIR USE IN THE TREATMENT OF DISEASE” (priority 2019, published 2023).
Where a name gives a salt, the structure may show the parent alone.

What follows are compounds tested against T1, IRAK4 (Homo sapiens, UniProt Q9NWZ3) (assay: biochemical). Details: not given.
T1 sequence (Q9NWZ3 1-460): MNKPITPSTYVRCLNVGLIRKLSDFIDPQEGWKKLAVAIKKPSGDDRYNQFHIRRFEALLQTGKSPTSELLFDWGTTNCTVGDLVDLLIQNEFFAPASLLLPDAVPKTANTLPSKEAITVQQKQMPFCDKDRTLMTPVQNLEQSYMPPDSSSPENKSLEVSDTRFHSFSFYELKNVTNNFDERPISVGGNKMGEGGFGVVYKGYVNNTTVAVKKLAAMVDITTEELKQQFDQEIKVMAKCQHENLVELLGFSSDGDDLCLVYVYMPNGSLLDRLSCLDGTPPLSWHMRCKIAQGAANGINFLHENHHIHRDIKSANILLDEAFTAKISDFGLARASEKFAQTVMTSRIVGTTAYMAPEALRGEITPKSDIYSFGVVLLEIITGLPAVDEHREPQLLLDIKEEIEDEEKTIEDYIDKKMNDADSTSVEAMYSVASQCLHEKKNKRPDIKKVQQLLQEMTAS

IC50 [µM]	SMILES
0.0022	CCOc1nc(C(=O)Nc2cccc(C(F)F)n2)cn2cc(C3CCCOC3)nc12 (centres unmarked) [Example 223]
0.0019	CC(C)Oc1cc2nc(C34COC(C)(C3)C4)cn2cc1C(=O)Nc1cnn2cc(C3CC3)cnc12 [Example 322, N-(6-cyclopropylpyrazolo[1,5-a]pyrimidin-3-yl)-7-isopropoxy-2-(1-methyl-2-oxabicyclo[2.1.1]hexan-4-yl)imidazo[1,2-a]pyridine-6-carboxamide]
0.0008	COc1ncccc1NC(=O)c1cn2cc(C34CC(C#N)(C3)C4)nc2cc1OC(C)C [Example 403, 2-(3-Cyanobicyclo[1.1.1]pentan-1-yl)-7-isopropoxy-N-(2-methoxypyridin-3-yl)imidazo[1,2-a]pyridine-6-carboxamide]
0.001	CC(C)Oc1cc2nc(C34CCC(C)(C3)OC4)cn2cc1C(=O)Nc1cccc(C(F)(F)F)c1 (centres unmarked) [Example 510, 7-Isopropoxy-2-(1-methyl-2-oxabicyclo[2.2.1]heptan-4-yl)-N-(3-(trifluoromethyl)phenyl)imidazo[1,2-a]pyridine-6-carboxamide]
0.0071	COc1nc(C(=O)Nc2cccc(C(F)F)n2)cn2cc(C34COC(C)(C3)C4)nc12 [Example 231, N-(6-(difluoromethyl)pyridin-2-yl)-8-methoxy-2-(1-methyl-2-oxabicyclo[2.1.1]hexan-4-yl)imidazo[1,2-a]pyrazine-6-carboxamide]
0.0008	CC12CC(c3cn4cc(C(=O)Nc5cccn(C(F)F)c5=O)c(OCC5CC5(F)F)cc4n3)(CO1)C2 (centres unmarked) [Example 452, 7-((2,2-Difluorocyclopropyl)methoxy)-N-(1-(difluoromethyl)-2-oxo-1,2-dihydropyridin-3-yl)-2-(1-methyl-2-oxabicyclo[2.1.1]hexan-4-yl)imidazo[1,2-a]pyridine-6-carboxamide]
0.003	CC(C)Oc1nc2nc(C34COC(C)(C3)C4)cn2cc1C(=O)Nc1cccc(F)c1Cl [Example 399, N-(2-chloro-3-fluorophenyl)-7-isopropoxy-2-(1-methyl-2-oxabicyclo[2.1.1]hexan-4-yl)imidazo[1,2-a]pyrimidine-6-carboxamide]
0.429	COc1cc2nc(C3CCOCC3)cn2cc1C(=O)Nc1ncnc2cccnc12 [Example 204, 7-Methoxy-N-(pyrido[3,2-d]pyrimidin-4-yl)-2-(tetrahydro-2H-pyran-4-yl)imidazo[1,2-a]pyridine-6-carboxamide]
0.0016	CCOc1nc(C(=O)Nc2cccc(C(F)F)n2)cn2cc(C34CCC(C)(C3)OC4)nc12 (centres unmarked) [Example 274, N-(6-(difluoromethyl)pyridin-2-yl)-8-ethoxy-2-(1-methyl-2-oxabicyclo[2.2.1]heptan-4-yl)imidazo[1,2-a]pyrazine-6-carboxamide]
5.69	COc1nc(C(=O)Nc2ccnn2C)cn2cc(C3CCOCC3)nc12 [Example 89]
0.0032	COc1ncccc1NC(=O)c1cn2cc([C@@]34CC[C@@](C)(C3)OC4)nc2c(OC)n1 (single isomer, unassigned) [Example 587]
0.148	COc1cc2nc(C3CCOCC3)cn2cc1C(=O)Nc1cccnc1C(C)C [Example 187]
7.14	COCc1cc2nc(C34COC(C)(C3)C4)cn2cc1C(=O)Nc1cccn(C)c1=O [Example 287, 7-(Methoxymethyl)-N-(1-methyl-2-oxo-1,2-dihydropyridin-3-yl)-2-(1-methyl-2-oxabicyclo[2.1.1]hexan-4-yl)imidazo[1,2-a]pyridine-6-carboxamide]
0.0006	CC(C)Oc1cc2nc([C@@]34CC[C@@H](C3)OC4)cn2cc1C(=O)Nc1cnn2cccnc12 (single isomer, unassigned) [Example 582]
0.0128	CCOc1nc(C(=O)Nc2cc(F)cnc2OC)cn2cc([C@H]3CCCOC3)nc12 (single isomer, unassigned) [Example 595]
0.559	COc1cc2nc(C3CCOCC3)cn2cc1C(=O)Nc1ccc(C)n(C)c1=O [Example 182]

Further lines, the compound ahead of its results:

SMILES	IC50 [µM]
CCn1cccc(NC(=O)c2cn3cc(C45CCC(C)(C4)OC5)nc3cc2OC2CCC2)c1=O (centres unmarked) [Example 535, 7-Cyclobutoxy-N-(1-ethyl-2-oxo-1,2-dihydropyridin-3-yl)-2-(1-methyl-2-oxabicyclo[2.2.1]heptan-4-yl)imidazo[1,2-a]pyridine-6-carboxamide]	0.0011
CCOc1nc(C(=O)Nc2cccc(C(F)F)c2)cn2cc(C34COC(C)(C3)C4)nc12 [Example 494, N-(3-(difluoromethyl)phenyl)-8-ethoxy-2-(1-methyl-2-oxabicyclo[2.1.1]hexan-4-yl)imidazo[1,2-a]pyrazine-6-carboxamide]	0.0039
CC12CCC(c3cn4cc(C(=O)Nc5cccn6cnnc56)c(OC5CCC5)cc4n3)(CO1)C2 (centres unmarked) [Example 540, N-([1,2,4]triazolo[4,3-a]pyridin-8-yl)-7-cyclobutoxy-2-(1-methyl-2-oxabicyclo[2.2.1]heptan-4-yl)imidazo[1,2-a]pyridine-6-carboxamide]	0.0008
Cn1ccc(NC(=O)c2cn3cc(C45COC(C)(C4)C5)nc3cc2OC2CCC2)n1 [Example 437, 7-Cyclobutoxy-N-(1-methyl-1H-pyrazol-3-yl)-2-(1-methyl-2-oxabicyclo[2.1.1]hexan-4-yl)imidazo[1,2-a]pyridine-6-carboxamide]	0.0017
Cc1cnc2c(NC(=O)c3cn4cc([C@@]56CC[C@@](C)(C5)OC6)nc4nc3OC(C)C)cnn2c1 (single isomer, unassigned) [Example 616]	0.0002
Cn1ccc(NC(=O)c2cn3cc(C45COC(C)(C4)C5)nc3cc2OC2CCCC2)n1 [Example 449, 7-(Cyclopentyloxy)-N-(1-methyl-1H-pyrazol-3-yl)-2-(1-methyl-2-oxabicyclo[2.1.1]hexan-4-yl)imidazo[1,2-a]pyridine-6-carboxamide]	0.0015
CC(C)Oc1nc2nc(C34COC(C)(C3)C4)cn2cc1C(=O)Nc1cnc2cccnn12 [Example 373, N-(imidazo[1,2-b]pyridazin-3-yl)-7-isopropoxy-2-(1-methyl-2-oxabicyclo[2.1.1]hexan-4-yl)imidazo[1,2-a]pyrimidine-6-carboxamide]	0.0006
CC(C)Oc1nc2nc(C34COC(C)(C3)C4)cn2cc1C(=O)Nc1cccc2ccnn12 [Example 385, 7-Isopropoxy-2-(1-methyl-2-oxabicyclo[2.1.1]hexan-4-yl)-N-(pyrazolo[1,5-a]pyridin-7-yl)imidazo[1,2-a]pyrimidine-6-carboxamide]	0.0004
CCC(C)Oc1nc2nc(C34COC(CF)(C3)C4)cn2cc1C(=O)Nc1cnn2cc(C)cnc12 (single isomer, unassigned) [Example 645]	0.0005
CC(C)Oc1nc2nc(C34COC(C)(C3)C4)cn2cc1C(=O)Nc1nc(C(F)(F)F)cs1 [Example 397, 7-Isopropoxy-2-(1-methyl-2-oxabicyclo[2.1.1]hexan-4-yl)-N-(4-(trifluoromethyl)thiazol-2-yl)imidazo[1,2-a]pyrimidine-6-carboxamide]	0.0134
CC(C)Oc1nc2nc(C34CCOC(C)(C3)C4)cn2cc1C(=O)Nc1cccc(C(F)F)n1 [Example 236]	0.0002
CCc1cccc(NC(=O)c2cn3cc(C4CCOCC4)nc3c(OC)n2)n1 [Example 86]	0.034
COc1cc2nc(C3CCOCC3)cn2cc1C(=O)Nc1cccc(C)c1Cl [Example 115]	0.0061

Same assay, conditions: IRAK4 Biochemical Assay (1 mM ATP, 2 h) IC50 (μM), 1 mM ATP, 2 h, 100 pM IRAK4

SMILES	IC50 [µM]
CC(C)Oc1nc2nc(C34COC(C)(C3)C4)cn2cc1C(=O)Nc1cnn2cccnc12 [Example 307, 7-Isopropoxy-2-(1-methyl-2-oxabicyclo[2.1.1]hexan-4-yl)-N-(pyrazolo[1,5-a]pyrimidin-3-yl)imidazo[1,2-a]pyrimidine-6-carboxamide]	0.0005
CC(C)Oc1nc2nc(C34COC(C)(C3)C4)cn2cc1C(=O)Nc1cccc2c1ncn2C [Example 379, 7-Isopropoxy-N-(1-methyl-1H-benzo[d]imidazol-4-yl)-2-(1-methyl-2-oxabicyclo[2.1.1]hexan-4-yl)imidazo[1,2-a]pyrimidine-6-carboxamide trifluoroacetate]	0.001
CC(C)Oc1cc2nc(C34CCC(C)(CC3)OC4)cn2cc1C(=O)Nc1cccn(C)c1=O [Example 574, 7-Isopropoxy-N-(1-methyl-2-oxo-1,2-dihydropyridin-3-yl)-2-(1-methyl-2-oxabicyclo[2.2.2]octan-4-yl)imidazo[1,2-a]pyridine-6-carboxamide]	0.0002
CC(C)Oc1nc2nc(C34CCC(C)(CC3)OC4)cn2cc1C(=O)Nc1cccn(C)c1=O [Example 654, 7-isopropoxy-N-(1-methyl-2-oxo-1,2-dihydropyridin-3-yl)-2-(1-methyl-2-oxabicyclo[2.2.2]octan-4-yl)imidazo[1,2-a]pyrimidine-6-carboxamide]	0.0005
CC12CC(c3cn4cc(C(=O)Nc5cccn(C6CC6)c5=O)c(OC5CCC5)nc4n3)(CO1)C2 [Example 651, 7-Cyclobutoxy-N-(1-cyclopropyl-2-oxo-1,2-dihydropyridin-3-yl)-2-(1-methyl-2-oxabicyclo[2.1.1]hexan-4-yl)imidazo[1,2-a]pyrimidine-6-carboxamide]	0.0005
COc1ncccc1NC(=O)c1cn2cc(C34CC(OC)(C3)C4)nc2cc1OC(C)C [Example 252, 7-Isopropoxy-2-(3-methoxybicyclo[1.1.1]pentan-1-yl)-N-(2-methoxypyridin-3-yl)imidazo[1,2-a]pyridine-6-carboxamide trifluoroacetate]	0.0004
